Experimental data: PubChem BioAssay AID1963840 (Molecular Pharmacology Branch, DTP, NCI, 2024)

Test system: 695427-040-R-J1-PDC complex spheroid viability
Test: Anticancer human tumor 695427-040-R-J1-PDC patient-derived colon adenocarcinoma cell line growth inhibition [POLQ]
Details: for IC50: curve of first compound; for viability, T/C: stronger effect = lower value
Summary of the method: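 PDC + HUVEC + MSC complex spheroids; POLQ inhibitors ± partner drugs; top conc. at/near clinical Cmax, else 10 microM (SN-38 1 microM), half-log dilutions; 37 degrees C, 5% CO2.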

[1] = second compound 0.0316 µM, first compound 0.0316 µM
[2] = second compound 0.0316 µM, first compound 0.1 µM
[3] = second compound 0.0316 µM, first compound 0.316 µM
[4] = second compound 0.0316 µM, first compound 1 µM
[5] = second compound 0.0316 µM, first compound 3.16 µM
[6] = second compound 0.0316 µM, first compound 10 µM
[7] = second compound 0.1 µM, first compound 0.0316 µM
[8] = second compound 0.1 µM, first compound 0.1 µM
[9] = second compound 0.1 µM, first compound 0.316 µM
[10] = second compound 0.1 µM, first compound 1 µM
[11] = second compound 0.1 µM, first compound 3.16 µM
[12] = second compound 0.1 µM, first compound 10 µM
[13] = second compound 0.316 µM, first compound 0.0316 µM
[14] = second compound 0.316 µM, first compound 0.1 µM
[15] = second compound 0.316 µM, first compound 0.316 µM
[16] = second compound 0.316 µM, first compound 1 µM
[17] = second compound 0.316 µM, first compound 3.16 µM
[18] = second compound 0.316 µM, first compound 10 µM
[19] = second compound 1 µM, first compound 0.0316 µM
[20] = second compound 1 µM, first compound 0.1 µM
[21] = second compound 1 µM, first compound 0.316 µM
[22] = second compound 1 µM, first compound 1 µM
[23] = second compound 1 µM, first compound 3.16 µM
[24] = second compound 1 µM, first compound 10 µM
[25] = second compound 3.16 µM, first compound 0.0316 µM
[26] = second compound 3.16 µM, first compound 0.1 µM
[27] = second compound 3.16 µM, first compound 0.316 µM
[28] = second compound 3.16 µM, first compound 1 µM
[29] = second compound 3.16 µM, first compound 3.16 µM
[30] = second compound 3.16 µM, first compound 10 µM
[31] = second compound 10 µM, first compound 0.0316 µM
[32] = second compound 10 µM, first compound 0.1 µM
[33] = second compound 10 µM, first compound 0.316 µM
[34] = second compound 10 µM, first compound 1 µM
[35] = second compound 10 µM, first compound 3.16 µM
[36] = second compound 10 µM, first compound 10 µM
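Also: spheroids exposed to compounds for seven days.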
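For viability, T/C in this document: 100% = DMSO vehicle control viability.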

CC(C)n1c(=O)n(C)c2cnc3cc(F)c(-c4ccc(OCCCN5CCCCC5)nc4)cc3c21 + Nc1ccc(C#CCN(C(=O)Cc2ncc(C(F)(F)F)cc2C(F)(F)F)c2ccc(F)cc2)nn1
IC50 (second compound 0.0316 µM): > 10 µM | IC50 (second compound 0.1 µM): > 10 µM | IC50 (second compound 0.316 µM): > 10 µM | IC50 (second compound 1 µM): > 10 µM | IC50 (second compound 3.16 µM): > 10 µM | IC50 (second compound 10 µM): > 10 µM | viability, T/C [1]: 103% | viability, T/C [2]: 105% | viability, T/C [3]: 112% | viability, T/C [4]: 110% | viability, T/C [5]: 100% | viability, T/C [6]: 91.4% | viability, T/C [7]: 106% | viability, T/C [8]: 109% | viability, T/C [9]: 115% | viability, T/C [10]: 107% | viability, T/C [11]: 108% | viability, T/C [12]: 81.9% | viability, T/C [13]: 114% | viability, T/C [14]: 112% | viability, T/C [15]: 103% | viability, T/C [16]: 110% | viability, T/C [17]: 106% | viability, T/C [18]: 91.8% | viability, T/C [19]: 102% | viability, T/C [20]: 98.9% | viability, T/C [21]: 116% | viability, T/C [22]: 106% | viability, T/C [23]: 115% | viability, T/C [24]: 82.4% | viability, T/C [25]: 107% | viability, T/C [26]: 100% | viability, T/C [27]: 105% | viability, T/C [28]: 104% | viability, T/C [29]: 96% | viability, T/C [30]: 79.6% | viability, T/C [31]: 99.7% | viability, T/C [32]: 90.1% | viability, T/C [33]: 101% | viability, T/C [34]: 108% | viability, T/C [35]: 95.4% | viability, T/C [36]: 88%

CC1COCCN1c1cc(C2(S(C)(=N)=O)CC2)nc(-c2ccnc3[nH]ccc23)n1 (stereo unspecified) + Nc1ccc(C#CCN(C(=O)Cc2ncc(C(F)(F)F)cc2C(F)(F)F)c2ccc(F)cc2)nn1
IC50 (second compound 0.0316 µM): > 10 µM | IC50 (second compound 0.1 µM): > 10 µM | IC50 (second compound 0.316 µM): > 10 µM | IC50 (second compound 1 µM): > 10 µM | IC50 (second compound 3.16 µM): > 10 µM | IC50 (second compound 10 µM): > 10 µM | viability, T/C [1]: 110% | viability, T/C [2]: 103% | viability, T/C [3]: 99.4% | viability, T/C [4]: 106% | viability, T/C [5]: 99.6% | viability, T/C [6]: 96.2% | viability, T/C [7]: 108% | viability, T/C [8]: 100% | viability, T/C [9]: 97.4% | viability, T/C [10]: 98.1% | viability, T/C [11]: 112% | viability, T/C [12]: 94.5% | viability, T/C [13]: 96.8% | viability, T/C [14]: 104% | viability, T/C [15]: 93.9% | viability, T/C [16]: 104% | viability, T/C [17]: 99.9% | viability, T/C [18]: 82.2% | viability, T/C [19]: 102% | viability, T/C [20]: 101% | viability, T/C [21]: 102% | viability, T/C [22]: 102% | viability, T/C [23]: 102% | viability, T/C [24]: 86.6% | viability, T/C [25]: 100% | viability, T/C [26]: 95.1% | viability, T/C [27]: 99.3% | viability, T/C [28]: 101% | viability, T/C [29]: 95.4% | viability, T/C [30]: 88.2% | viability, T/C [31]: 104% | viability, T/C [32]: 97.9% | viability, T/C [33]: 95% | viability, T/C [34]: 96.7% | viability, T/C [35]: 91.6% | viability, T/C [36]: 74.9%

CCc1c2c(nc3ccc(O)cc13)-c1cc3c(c(=O)n1C2)COC(=O)[C@]3(O)CC + Nc1ccc(C#CCN(C(=O)Cc2ncc(C(F)(F)F)cc2C(F)(F)F)c2ccc(F)cc2)nn1
IC50 (second compound 0.0316 µM): > 1 µM | IC50 (second compound 0.1 µM): > 1 µM | IC50 (second compound 0.316 µM): > 1 µM | IC50 (second compound 1 µM): > 1 µM | IC50 (second compound 3.16 µM): > 1 µM | IC50 (second compound 10 µM): > 1 µM | viability, T/C (second compound 0.0316 µM, first compound 0.00316 µM): 116% | viability, T/C (second compound 0.0316 µM, first compound 0.01 µM): 102% | viability, T/C [1]: 89.6% | viability, T/C [2]: 90.8% | viability, T/C [3]: 81.2% | viability, T/C [4]: 69.9% | viability, T/C (second compound 0.1 µM, first compound 0.00316 µM): 114% | viability, T/C (second compound 0.1 µM, first compound 0.01 µM): 107% | viability, T/C [7]: 95.7% | viability, T/C [8]: 93.5% | viability, T/C [9]: 81.2% | viability, T/C [10]: 60% | viability, T/C (second compound 0.316 µM, first compound 0.00316 µM): 117% | viability, T/C (second compound 0.316 µM, first compound 0.01 µM): 109% | viability, T/C [13]: 85.3% | viability, T/C [14]: 92.6% | viability, T/C [15]: 85.8% | viability, T/C [16]: 68.3% | viability, T/C (second compound 1 µM, first compound 0.00316 µM): 107% | viability, T/C (second compound 1 µM, first compound 0.01 µM): 98.7% | viability, T/C [19]: 88.4% | viability, T/C [20]: 85.3% | viability, T/C [21]: 83.6% | viability, T/C [22]: 52.5% | viability, T/C (second compound 3.16 µM, first compound 0.00316 µM): 101% | viability, T/C (second compound 3.16 µM, first compound 0.01 µM): 99.2% | viability, T/C [25]: 97.9% | viability, T/C [26]: 92% | viability, T/C [27]: 77% | viability, T/C [28]: 60.6% | viability, T/C (second compound 10 µM, first compound 0.00316 µM): 101% | viability, T/C (second compound 10 µM, first compound 0.01 µM): 94.8% | viability, T/C [31]: 86.7% | viability, T/C [32]: 85% | viability, T/C [33]: 72.7% | viability, T/C [34]: 57.1%
